Data published in patent publication US11174216B2, “Lipids that increase insulin sensitivity and methods of using the same” (Beth Israel Deaconess Medical Center, Inc., priority 2012, dated 2021).

Columns and labels:
STC-1 cells [1] = test: Calcium flux (FURA2) in STC-1 cells; assay type: cell-based; conditions: 100 uM, no extracellular Ca2+
Protocol: For the experiments summarized in FIG. 49 the method is: Cells grown on collagen coated glass slides were preloaded with the calcium indicator, FURA2, for 60 minutes. Buffer containing either FAHFAs or vehicle was incubated with cells for a period of 3 minutes followed by washout with buffer alone. FURA2 fluorescence, an indicator of Calcium mobilization, was monitored continuously before and during the addition of compounds and throughout the washout period. Results were analyzed with metamorph software. Calcium Flux in STC-1 (intestinal enteroendocrine) cells in the absence of extracellular calcium (calcium free buffer). Ligands were injected after 3 minutes and washed out after an additional 3 minutes. The data presented is the average fold change in Fura2 fluorescence for 10 individual STC-1 cells in the same field.
DMSO control had no effect. Top panel is linoleic acid, a positive control. Middle panel 9-PAHSA (100 uM). Bottom panel 5-PAHSA (100 μM). These experiments were done in the absence of extracellular calcium.

STC-1 cells [2] = test: ERK phosphorylation in STC-1 cells (immunoblot); assay type: cell-based; conditions: 15 minutes
Protocol: For the experiments summarized in FIG. 50, STC-1 cells were incubated with 9-PAHSA, 5-PAHSA or 9-OAHSA at the indicated concentrations. Cells were harvested and lysed and proteins were separated by SDS PAGE and transferred onto nitrocellulose filters. The phosphorylation of ERK and the amount of total ERK was determined by immunoblotting with antibodies specific for total or phosphor-ERK. DMSO was the control. For ERK phosphorylation, cells were serum deprived overnight and stimulated with FAHFAs or vehicle as indicated for 15 minutes followed by lysis in RIPA buffer and analysis by SDS-PAGE

GPR120 = biological target: T1, GPR120 (Homo sapiens, UniProt Q5NUL3); test: PATHHUNTER beta-Arrestin GPCR assay; assay type: cell-based
T1 sequence (Q5NUL3 1-361): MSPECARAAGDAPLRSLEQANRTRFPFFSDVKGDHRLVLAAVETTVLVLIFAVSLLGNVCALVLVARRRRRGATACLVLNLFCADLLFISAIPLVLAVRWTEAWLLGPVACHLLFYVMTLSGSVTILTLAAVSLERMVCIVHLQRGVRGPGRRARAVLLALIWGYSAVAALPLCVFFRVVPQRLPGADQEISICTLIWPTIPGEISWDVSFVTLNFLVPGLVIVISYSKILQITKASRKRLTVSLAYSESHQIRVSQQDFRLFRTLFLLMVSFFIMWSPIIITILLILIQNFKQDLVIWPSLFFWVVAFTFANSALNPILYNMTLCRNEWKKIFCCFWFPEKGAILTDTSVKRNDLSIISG
Description: For the experiments summarized in FIGS. 53-55, the fragment based GPCR assay from DiscoveRx (PATHHUNTER® β-Arrestin assay) was used to as per manufacturer's instructions to determine activation of specific GPCRs as indicated in FIGS. 53-55.

Ins1 cells = test: Insulin release studies in Ins1 cells; assay type: cell-based; conditions: 25 mM glucose in the media
Protocol: Ins1 cells (FIGS. 31A and 31B) or primary rat islet cells (FIG. 32A and FIG. 32B) were seeded in 24 well-plates [˜10^6 cells/well]. At confluence, cells were incubated with Low Serum [2.5%] and Low Glucose [2.5 mM] media for 12 hours. Next, cells were incubated with KRB buffer for 1 h and stimulated with glucose in the presence of 5-PAHSA (FIGS. 31a and 31B) or 9-PAHSA (FIG. 31B) for 45 min in KRB. At the end of the stimulation, 100 μL of media was collected and 10 μL was used to quantitate the amount of insulin released by ELISA. Treatment Conditions for FIGS. 31A, 31B and 32B were: • 5-PAHSA or 9-PAHSA [Stock]=20.0 mM [10.76 mg/mL Methanol] • A] 1 uM=0.3 uL/6 mL [Amount of methanol/mL=0.05 uL] • B] 5 uM=1.5 uL/6 mL [Amount of methanol/mL=0.25 uL] • C] 10 uM=3.0 uL/6 mL [Amount of methanol/mL=0.50 uL] • D] 20 uM=6.0 uL/6 mL [Amount of methanol/mL=1.00 uL]
Ins1 cells were seeded in 24 well-plates [˜10^6 cells/well] and at 80% confluence, were cultured overnight in RPMI 1640 medium containing 2.5 mM glucose and 2.5% fetal bovine serum supplemented with 100 IU/ml penicillin and […], 1 mM sodium pyruvate, 2-mercaptoethanol (50 μM) and 10 mM HEPES (pH 7.4). […] At the end of the stimulation supernatant was collected and insulin released into the medium was quantified by ELISA as per manufacturer's protocol. […]

STC-1 cells [3] = test: GLP-1 secretion in STC-1 enteroendocrine cells (ELISA); assay type: cell-based
Protocol: For the experiments summarized in FIG. 51 STC-1 cells were incubated with vehicle (DMSO), 9-PAHSA, 5-PAHSA or 9-OAHSA at the indicated concentrations or lineolic acid (100 uM) as a positive control. Media was harvested and GLP-1 was measured by ELISA.
For the experiments summarized in FIG. 52, the same protocol as described for FIG. 51 was used, except in this experiment a time course was performed. For both FIG. 51 and FIG. 52, for GLP-1 secretion STC1 cells were washed 3× with serum free culture media followed by stimulation with FAHFAs or vehicle at the indicated concentrations and timepoints. Levels of active GLP-1 were measured by ELISA.

[4] = tested on: FAHFA hydrolysis activity in pancreas membrane lysate; test: FAHFA hydrolysis activity assay, pancreas membrane lysate; conditions: 1 mg/ml protein, 100 uM 9-PAHSA, 30 min, room temperature
[5] = tested on: FAHFA hydrolysis activity in liver lysate

| Compound | Ca2+ flux from intracellular stores (STC-1 cells [1]) | ERK phosphorylation (STC-1 cells [2]) | activation of GPR120 (GPR120) | insulin secretion (Ins1 cells) | GLP-1 secretion (STC-1 cells [3]) | FAHFA hydrolysis activity, pancreas membrane versus liver membrane [4] | ligand for GPR120 (GPR120; bar graph and titration curve) | time course for GLP-1 secretion (STC-1 cells [3]) | hydrolysis of 9-PAHSA to 9-HSA [5] |
| --- | --- | --- | --- | --- | --- | --- | --- | --- | --- |
| CCCCCCCCCCCCCCCC(=O)OC(CCCCCCCCCCCCC)CCCC(=O)O (centres unmarked) [5-PAHSA] | induce Ca^2+ flux from intracellular stores | induce ERK phosphorylation | activate GPR120 | potentiate insulin secretion | induce GLP-1 secretion |  |  |  |  |
| CCCCCCCCCCCCCCCC(=O)OC(CCCCCCCCC)CCCCCCCC(=O)O (centres unmarked) [9-PAHSA, palmitoyl-9-hydroxystearic acid] | induce Ca^2+ flux from intracellular stores | induce ERK phosphorylation | activate GPR120 | potentiate insulin secretion | induce GLP-1 secretion | ~10 fold | is a ligand for the GPCR, GPR120 | very rapid and sustained | Substantial 9-HSA production |
